Assay results as given in PubChem BioAssay (NCI).
Several values for one entry are separate records, joined by “and”; a condition that tells them apart may be missing. Equal values may be shown once.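 Protocol summary: plate cells (96-well), add compound at 5 concentrations, incubate 48 h, interpolate endpoints linearly. Here, GI50 denotes the concentration required for 50% inhibition of growth. TGI is the concentration that stops growth completely.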

Experiments:
Experiment in all cases: NCI-60 cell line screen, 48 h
[1] = test system: NCI/ADR-RES ovarian
[2] = test system: BT-549 breast
[3] = test system: SNB-75 CNS
[4] = test system: MDA-MB-435
[5] = test system: SN12C renal
[6] = test system: SK-MEL-5 melanoma
[7] = test system: RXF 393 renal

SMILES	GI50 [1]	TGI [1]	GI50 [2]	TGI [2]	GI50 [3]	TGI [3]	GI50 [4]	TGI [4]	GI50 [5]	TGI [5]	GI50 [6]	TGI [6]	GI50 [7]	TGI [7]
O=C1CC(=O)OC(c2ccc([N+](=O)[O-])cc2)O1	3.19 µM	14.1 µM	2 µM	3.87 µM	1.44 µM	3.12 µM	2590 nM	8.62 µM	1.94 µM	4.23 µM	1720 nM	3.39 µM	1.77 µM	3.23 µM
COC(=O)CCC1=C(C)/C(=C/c2[nH]c(-c3ccc[nH]3)cc2OC)N=C1C	0.434 µM	12.3 µM	0.493 µM	5.45 µM	0.382 µM	3.18 µM	454 nM	2.5 µM	2.35 µM	18.1 µM	96.5 nM	0.248 µM	0.352 µM	2.07 µM
N#C[C@@H]1C(n2ccc(N)nc2=O)O[C@H](CO)[C@H]1O (stereo partly specified)	12.9 µM	> 100 µM	> 100 µM	> 100 µM	> 100 µM	> 100 µM	> 73000 nM	> 100 µM	9.69 µM	> 100 µM	38300 nM	> 100 µM	> 100 µM	> 100 µM
COc1ccc(Cn2c(Cl)c(/C=C3/C(=O)Nc4ccccc43)c3cc(OC)c(C)cc32)cc1	2 µM	4.77 µM	17.2 µM	> 100 µM			2060 nM	6.08 µM	8.17 µM	> 100 µM	2440 nM	16 µM	4.06 µM	> 100 µM
Fc1cccc(Cl)c1/C=N\N=C1c2ccccc2-c2ccccc21		> 100 µM		> 100 µM				> 100 µM		> 100 µM		> 100 µM		> 100 µM
O=C(O)CSc1ncccc1[N+](=O)[O-]		> 100 µM		> 100 µM		> 100 µM		> 100 µM		> 100 µM		> 100 µM		> 100 µM
CC1CCN(CC(=O)N2c3ccccc3Sc3cc4ccccc4cc32)CC1		> 100 µM		> 100 µM		> 100 µM		> 100 µM		> 100 µM		> 100 µM		> 100 µM
Cc1ccc(SC(=O)N2C(=S)NC(=NC3CCCCC3)C23CCCCC3)cc1		> 100 µM		> 100 µM		> 100 µM		> 100 µM		> 100 µM		> 100 µM		> 100 µM
FCc1ncc(-c2ccc(C(F)(F)F)cc2)c(NC2CCCCCC2)n1	> 10 µM	> 10 µM	> 10 µM	> 10 µM	> 10 µM	> 10 µM	> 10000 nM	> 10 µM	> 10 µM	> 10 µM	> 10000 nM	> 10 µM	> 10 µM	> 10 µM
CCN(CCNc1ccc(C)c2sc3ccccc3c(=O)c12)CC(C)(C)O	14.1 µM	56.1 µM	15.3 µM	36.6 µM	15.7 µM	48.6 µM	6510 nM	28.6 µM	13.2 µM	28.3 µM	2310 nM	6.17 µM		
CCC(c1cccc(O)c1)C(CC)c1cccc(O)c1 (stereo unspecified)	3.53 µM	14.1 µM	1.09 µM	14.3 µM	0.973 µM	11.7 µM	2150 nM	6.44 µM	5.46 µM	19.4 µM	1410 nM	3.91 µM	2.75 µM	10.6 µM
C[C@]12CC[C@@H]3c4ccc(O)cc4C(O)C[C@H]3[C@@H]1CCC2=O (stereo partly specified)	> 100 µM	> 100 µM	> 100 µM	> 100 µM	26.9 µM	> 100 µM	> 100000 nM	> 100 µM	> 100 µM	> 100 µM	> 100000 nM	> 100 µM		
CCCCCCN(CCCCCC)CC(O)c1ccc2c3c(cccc13)CC2 (stereo unspecified)	10.6 µM	26.2 µM	13.5 µM	28.1 µM	13.6 µM	27.1 µM	3110 nM	15.2 µM	7.04 µM	22 µM	4740 nM	17.9 µM	2.39 µM	7.21 µM
Cc1cc(N/N=C/c2nc(-c3ccc(Cl)cc3)oc2C)c2cc(Cl)ccc2n1	2.19 µM	5.63 µM	8.61 µM	21.1 µM	1.68 µM	3.68 µM	1680 nM	3.44 µM	1.94 µM	4.16 µM	8640 nM	20.8 µM	3.57 µM	15.8 µM
Cc1cc(-c2nnc3n2CCCCC3)c(C)n1-c1ccc(Cl)c(Cl)c1	11.9 µM	47.8 µM	7.1 µM	20.3 µM	13.4 µM	27.7 µM	10300 nM	26.9 µM	14.7 µM	40.1 µM	2180 nM	6.08 µM	8.42 µM	29.8 µM
c1nnc(NCNc2nncs2)s1		> 100 µM		> 100 µM		> 100 µM		> 100 µM		> 100 µM		> 100 µM		> 100 µM
O=C1c2ccccc2-n2c1nc1ccccc1c2=O		> 100 µM		45.4 µM		83.8 µM		3.44 µM		> 68.8 µM		26 µM		> 81.6 µM
COc1ccc(Cl)cc1Nc1nc(C(F)(F)F)ccc1C(=O)N/N=C/c1cc(OC)c(OC)c(OC)c1	3.35 µM	21.6 µM	1.2 µM	3.68 µM	2.19 µM	9.8 µM	2410 nM	7.72 µM	2.09 µM	18 µM	1680 nM	4.57 µM		
COc1ccc(C2CC(n3nnnc3-c3ccccc3)=NN2)cc1 (stereo unspecified)	4.3 µM	33.7 µM	8.89 µM	37.6 µM	14.4 µM	54 µM	974 nM	15.6 µM	12.7 µM	> 100 µM	2120 nM	7.81 µM	21.1 µM	95.6 µM

SMILES	GI50 [1]	TGI [1]	GI50 [2]	TGI [2]	GI50 [3]	TGI [3]	GI50 [4]	TGI [4]	GI50 [5]	TGI [5]	GI50 [6]	TGI [6]	GI50 [7]	TGI [7]
Oc1ccccc1-c1nc2c3ccccc3c3ccccc3c2[nH]1	8.43 µM	25.6 µM	9.06 µM	21.7 µM	2.53 µM	15.2 µM	6230 nM	18.7 µM	10.7 µM	22.6 µM	12100 nM	24.4 µM	6.23 µM	18.8 µM
COC(=O)CCCCCN=Cc1c(O)c(O)c(C(C)C)c2cc(C)c(-c3c(C)cc4c(C(C)C)c(O)c(O)c(C=NCCCCCC(=O)OC)c4c3O)c(O)c12	9.04 µM	> 32.5 µM	3 µM	> 32.5 µM	2.55 µM	> 32.5 µM	1820 nM	> 32.5 µM	1.3 µM	> 32.5 µM	4460 nM	12.6 µM	0.851 µM	4.65 µM
COc1cc2nc(-c3ccc(C(F)(F)F)cc3)cc(OCCCN3CCCCC3)c2cc1OC	0.522 µM	14.8 µM	1.48 µM	11.7 µM	1.96 µM	6.86 µM	1230 nM	7.08 µM	0.668 µM	15.8 µM	325 nM	1.2 µM	1.09 µM	4.26 µM
C=C1C(=O)O[C@H]2C[C@@]3(C)[C@H](O)CCC(=C)[C@@H]3[C@@H](OC(C)=O)[C@H]12		76.8 µM		25 µM		29.2 µM		44.4 µM		29.5 µM		26.4 µM		14.7 µM
CC(C)(C)NC(=O)[C@H]1C[C@H]2CCCC[C@H]2CN1C[C@@H](O)[C@H](Cc1ccccc1)NC(=O)[C@H](CC(N)=O)NC(=O)c1ccc2ccccc2n1	19.4 µM	44.3 µM	11.2 µM	> 66.1 µM	12.5 µM	28.4 µM	11900 nM	32.8 µM	13.9 µM	27.8 µM	14500 nM	30 µM	12.5 µM	32.1 µM
COC(=O)C1=C(C(=O)OC)SC(=C(Cl)C(=S)Sc2ccccc2N)S1	25.5 µM	62.1 µM	2.03 µM	8.6 µM	32.8 µM	> 100 µM	29300 nM	> 100 µM	20.5 µM	59.4 µM	19900 nM	49.2 µM	18.1 µM	38 µM
Cc1nc(C(N)=S)sc1C(=O)C/C(=N/N)C(=O)Nc1cccc(Cl)c1C		> 100 µM		> 100 µM		> 100 µM		> 100 µM		> 100 µM		> 100 µM		> 100 µM
CN(C)C(=O)O[C@@H]1CN[C@@H](C#Cc2cc3ncnc(Nc4ccc(OCc5cccc(F)c5)c(Cl)c4)c3s2)C1	> 25 µM	> 25 µM	7.93 µM	> 21.4 µM	> 19.4 µM	> 25 µM	> 25000 nM	> 25 µM	8.01 µM	> 25 µM	> 25000 nM	> 25 µM	> 20.4 µM	> 25 µM
Cc1c2ccc(N(C)c3ccnc(Nc4cccc(S(N)(=O)=O)c4)n3)cc2nn1C	> 19.7 µM	> 25 µM	9.48 µM	> 25 µM	4.33 µM	> 22.9 µM	6740 nM	> 22.3 µM	8.75 µM	> 25 µM	6010 nM	> 17.1 µM	7.14 µM	> 22.7 µM
NC(=O)c1ccc(C2C3=C(CCCC3=O)OC3=C2C(=O)c2ccccc2C3=O)cc1 (stereo unspecified)	2.94 µM	22.5 µM	0.642 µM	2.03 µM	0.277 µM	1.22 µM	179 nM	0.339 µM	0.32 µM	1.17 µM	493 nM	1.73 µM	1.43 µM	2.87 µM
CSc1ccc(/C=C2\C=C(CC(=O)NCc3ccc(C(=O)c4ccccc4)cc3)c3cc(F)ccc32)cc1	0.0328 µM	0.187 µM	1.43 µM	21.9 µM	0.0433 µM	6.25 µM	< 11.2 nM	0.0515 µM	0.059 µM	23 µM	35 nM	0.365 µM	0.0307 µM	0.292 µM
CNC(=S)N/N=C/c1ccc([N+](=O)[O-])s1		> 10 µM		> 10 µM		> 10 µM		> 10 µM		> 10 µM		> 10 µM		> 10 µM
COc1cc(S(C)(=O)=O)ccc1Nc1nc2ccc(-c3ccc(NC(=O)[C@H](C)c4ccc(F)cc4)cc3)cn2n1	> 20.6 µM	> 100 µM	> 63.8 µM	> 100 µM	47.1 µM	> 100 µM	> 100000 nM	> 100 µM	> 100 µM	> 100 µM	400 nM	> 100 µM	> 48.5 µM	> 100 µM
Cn1cc(CNCC2CCN(c3ncc(C(=O)NO)cn3)CC2)c2ccccc21	0.107 µM	5.59 µM	0.225 µM	14.3 µM	< 0.0108 µM	8.62 µM	12 nM	0.123 µM	0.0344 µM	15.7 µM	< 10.8 nM	0.0307 µM	< 0.0107 µM	0.0385 µM
CCN(CC)CCCC(C)Nc1c2ccc(C)cc2nc2ccc(OC)cc12 (stereo unspecified)	4.03 µM	22.7 µM	10.7 µM	27.3 µM	1.37 µM	3.24 µM	1600 nM	3.38 µM	3.12 µM	55.1 µM	1650 nM	3.03 µM	1.44 µM	2.88 µM
CCN(CC)CCNc1n[n+]([O-])c2ccccc2[n+]1[O-]		85.6 µM and > 100 µM		34.2 µM and 74.1 µM	4.07 µM and 14.8 µM	45.3 µM and 55.4 µM		50 µM and > 100 µM		19.1 µM and 18.9 µM		4.86 µM and 3.31 µM		25.4 µM and 42.7 µM
CC(=O)Nc1ccc(S(=O)(=O)NNC(=O)c2cccnc2Nc2ccc(Cl)cc2)cc1			25.2 µM	> 100 µM	5.54 µM	> 100 µM	3200 nM	> 100 µM	59.3 µM	> 100 µM	5680 nM	> 100 µM	37.3 µM	> 100 µM
c1cc(CNC2C3CCC(C3)C2c2c[nH]c3ccccc23)cc(CNC2C3CCC(C3)C2c2c[nH]c3ccccc23)c1 (stereo unspecified)	1.21 µM and 0.607 µM	2.6 µM and 1.99 µM		3.24 µM		1.21 µM			14.5 µM	31.5 µM		3.29 µM		
